In patent US7943795B2, “Vitamin D receptor modulators” (Eli Lilly and Company, priority 2004, dated 2011):

Legend:
[1] = Mouse hypercalcemia assay; assay type: in vivo
Experimental: 5. The Mouse Hypercalcemia test is described in the “Assay” section of the Description, infra.
The Mouse Hypercalcemia Assay
The Mouse Hypercalcemia Assay is a six day hypercalcemia test for toxicity and selectivity. Acceptable test results are levels greater than 30 μg/kg/day. Preferred assay results are levels greater than 300 μg/kg/day.
Weanling, virus—antibody-free, five to six weeks old female DBF mice (Harlan, Indianapolis, Ind.) are used for all the studies. Animals are allowed to acclimate to local vivarium conditions for 2 days. Mice are maintained on a 12 hr light/dark cycle at 22° C. with ad lib access to food (TD 5001 with 1.2% Ca and 0.9% P, Teklad, Madison, Wis.) and water. The animals then are divided into groups with 4-5 mice per group. Different doses of test compounds prepared in 10% ethanol and 90% sesame oil, or in an aqueous suspension of sodium lauryl sulfate and CMC (the latter formulation for acidic compounds) are administered to mice orally via gavage for 6 days. 1α-25(OH)2D3 0.5 μg/kg/d was also given to one group of mice as the positive control. Serum ionized calcium is evaluated at 6 hours after the last dosing under isoflurane anesthesia by Ciba-Corning Ca++/PH Analyzer, (Model 634, Chiron Diagnostics Corp., East Walpole, Mass.). Raw data of group differences is assessed by analysis of variance (ANOVA) using Fisher's protected least significant difference (PLSD) where the significance level was P<0.05.

rat osteocalcin promoter = experiment: OCN (osteocalcin) promoter assay; assay type: cell-based; conditions: RG-15 (ROS 17/2.8) cells, 48 hr treatment, luciferase reporter
Experimental: 4. The OCN Promoter test is described in the “Assay” section of the Description, infra.
The OCN (Osteocalcin) Promoter Assay
The OCN Promoter Assay is an indicator and marker for osteoporosis. Desired assay results are EC50 less than or equal to 325 nM. Preferred assay results are less than 50 nM.
The activation of osteocalcin by VDR ligands is evaluated in a rat osteoblast-like cell line RG-15 (ROS 17/2.8) stably expressing rat osteocalcin promoter fused with luciferase reporter gene. The stable cell lines are established as reported before (Activation of Osteocalcin Transcription involves interaction of protein kinase A- and Protein kinase C-dependent pathways. Boguslawski, G., Hale, L. V., Yu, X.-P., Miles, R. R., Onyia, J. E., Santerre R. F., Chandrasekhar, S. J Biol. Chem. 275, 999-1006, 2000). Confluent RG-15 cells maintained in DMEM/F-12 medium (3:1) containing 5% FBS, 300 μg/ml G418 and at 37° C. under 5% CO2/95% air atmosphere are trypsinized (0.25% trypsin) and plated into white opaque 96-well cell culture plates (25000 cells/well). After 24 hr, cells (in DMEM/F-12 medium+2% FBS) are treated with various concentrations of compounds, dissolved in DMSO. The final DMSO concentration remains at 0.01% (v/v). After 48 hr treatment, the medium is removed, cells are lysed with 50 μl of lysis buffer (From Luciferase reporter assay system, Roche Diagnostics, Indianapolis, Ind.) and then assayed for luciferase activity using the Luciferase Reporter Gene Assay kit from Boehringer Mannheim as per manufacturer's specifications.

RXR-VDR heterodimer = target: T1, RXR-VDR heterodimer (Homo sapiens, UniProt P11473); experiment: RXR-VDR heterodimerization (SaOS-2 cells) test; assay type: cell-based; conditions: Gal-4-RXR-DEF / VP16-VDR-LBD, luciferase reporter
T1 construct: add the Reporter gene pFR-LUC; and add the Gal-4-RXR-DEF and VP16-VDR-LBD; expressed in transfected cells; host or cells: SaOS-2 cells
T1 sequence (P11473 127-423 limits assumed): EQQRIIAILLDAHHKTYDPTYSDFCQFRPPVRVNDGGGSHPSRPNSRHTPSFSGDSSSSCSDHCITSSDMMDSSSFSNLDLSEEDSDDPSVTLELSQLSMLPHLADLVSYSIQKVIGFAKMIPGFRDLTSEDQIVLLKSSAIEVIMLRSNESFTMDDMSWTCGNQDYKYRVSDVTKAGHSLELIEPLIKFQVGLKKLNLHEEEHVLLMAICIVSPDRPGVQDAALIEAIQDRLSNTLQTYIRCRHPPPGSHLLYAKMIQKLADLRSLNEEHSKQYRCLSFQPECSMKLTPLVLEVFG
T1 sequence (P19793 201-462 partner limits assumed): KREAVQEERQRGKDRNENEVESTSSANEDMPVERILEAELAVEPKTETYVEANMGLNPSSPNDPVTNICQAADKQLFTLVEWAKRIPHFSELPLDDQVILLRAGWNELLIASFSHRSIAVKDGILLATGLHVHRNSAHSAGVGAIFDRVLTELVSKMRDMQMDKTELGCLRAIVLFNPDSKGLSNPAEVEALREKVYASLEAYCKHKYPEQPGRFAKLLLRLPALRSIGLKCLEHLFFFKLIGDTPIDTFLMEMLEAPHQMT
Experimental: 2. The RXR-VDR heterodimerization (SaOS-2 cells) test is described in the “Assay” section of the Description, infra.
1. The RXR-VDR Heterodimer Assay:
This assay provides the VDR activity of a test compound. It is desirable to have low EC50 values for a compound in this assay. […] Desired assay results are EC50 values less than or equal to 600 nM. Preferred assay results are less than 250 nM, and most preferably less than 150 nM.
(1) Materials and Method for RXR-VDR Heterodimerization Assay Transfection
• Method: Reagents: FuGENE 6 Transfection Reagent (Roche Cat #1 814 443); Growth Media: D-MEM High Glucose (Gibco BRL Cat #11054-020), 10% heat inactivated FBS, (Gibco BRL Cat#10092-147) 1% antibiotic-antimycotic (Ab-Am); (Gibco BRL Cat #15240-062). • Cells: Grow SaOS-2 cells in T-150 cm^2 culture flasks in growth media keeping the density at 5-6×10^5 cells/ml. Passage cells 1:3 twice a week. Add Trypsin EDTA (Gibco BRL Cat #25300-020) and incubate. Resuspend cells in plating media and transfer into growth media. • Wash Media: HBSS Low Glucose Without Phenol Red (Gibco BRL Cat #14175-095), 1% Ab-Am. Plating Media: D-MEM Low Glucose Without Phenol Red (Gibco BRL Cat #11054-020), 1% Ab-Am; D-MEM; 10% Stripped FBS (Hyclone Cat#SH30068.03 Lot #AHM9371); • Transfection/Treatment Media: D-MEM Low Glucose Without Phenol Red only; T-150 cm^2 culture flask: Use Corning Coastar T-150 cm^2 culture flask (Cat #430825) to grow the cells. • Luciferase Assay Reagent: Use Steady-Glo Luciferase Reagent from Promega (Cat #E2550) Consists of: E2533 Assay Substrate, lyophilized product and E2543 Assay Buffer. Thaw at room temperature and store. • Cell Harvesting/Count: Aspirate media from culture flask, rinse cells with HBSS and aspirate. Add trypsin and incubate. When cells appear detached, resuspend cells in growth media. Transfer into a new flask with fresh growth media for passaging the cells. Plate 96 well plates and two extra plates. Mix the cell suspension using pipette. To count the cells using a Hematocytometer. • Plate seeding: Use plating media 10% Stripped FBS in D-MEM Low Glucose, without Phenol Red, 1% Ab-Am. Plate 14 plates @ 165 μl/well. In sterile flask add cell suspension to plating media and mix. Add cells/well. Place the cells in the incubator. Cells should be about 75% confluent prior to transfection. DAY 2: Transfection: Step 1, DNA and Media: Add plain DMEM media to tubes for mixing the DNA; add the Reporter gene pFR-LUC; and add the Gal-4-RXR-DEF and VP16-VDR-LBD. Step 2, FuGENE and Media: Prepare plain DMEM media in a tubes for mixing FuGENE, add FuGENE 6 Transfection Reagent, and incubate. Step 3, FuGENE, DNA and Media Complex: Add FuGENE Media complex from step 2 to DNA Media complex from step 1 and incubate. Step 4, FuGENE, DNA and Media Complex to 96 well plate: Add FuGENE-DNA-Media complex from step 3 to each plate. Incubate. • Day 3: Dosing: Treatment preparation. Allow for transfection time. Make a stock solution of the compounds in DMSO and vortex until all the compounds have been dissolved. Further dilute in D-MEM (Low Glucose—without Phenol Red) Add compounds in quadruplicate to give desired final volume then incubate. • Day 4: Luciferase Assay: Read the plates after drug treatment. Remove part of media from all the wells and leave remainder. Add Steady-Glo Luciferase Reagent mixture/wells and incubate. Count each well using a Luminescence counter, Top Count NXT by Packard preferably set a delay between plates to reduce the background.

VDR = target: T2, VDR (Homo sapiens, UniProt P11473); experiment: VDR CTF (Caco-2 cells) co-transfection assay; assay type: cell-based; conditions: pGal4-VDR-LBD, luciferase reporter
T2 construct: the receptor expression vector pGal4-VDR-LBD (10 ng); expressed in transfected cells; host or cells: Caco-2 cells
T2 sequence (P11473 127-423 limits assumed): T1 sequence (P11473 127-423 limits assumed)
Experimental: 3. The VDR CTF (Caco-2 cells) test is described in the “Assay” section of the Description, infra.
The Caco-2 cell assay is an indicator for the undesirable condition of hypercalcemia. This co-transfection assay is a surrogate assay for in vivo calcemic activity of VDR ligands. It is desirable to have high EC50 values for a test compound in this assay. The higher the EC50 values for a compound the less calcemic it will be in vivo. Desired assay results are EC50 greater than or equal to 300 nM. Preferred assay results are greater than 1000 nM.
Caco-2 cells, grown in phenol red free, DMEM (Invitrogen, Carlsbad, Calif.) containing 10% charcoal-stripped FBS (Hyclone, Logan, Utah), are transfected with Fugene 6 reagent (Roche Diagnostics, Indianapolis, Ind.). Cells (5000/well) are plated 18 h before transfection in a 96 well plate. The cells are transfected with Gal4-responsive reporter pFRLuc (150 ng, Stratagene, La Jolla Calif.) and the receptor expression vector pGal4-VDR-LBD (10 ng), along with Fugene 6 reagent (0.2 μl/well). The DNA-Fugene complex is formed by incubating the mixture for 30 m at room temperature. The cells are transfected in triplicate for 5 h, and treated with various concentrations of VDR ligands (from 0.01 nM to […] concentration range) 18 h post-transfection. The luciferase activity is quantified using Steady-Glo reagent kit (Promega, Madison, Wis.) as per manufacturer's specifications.

[2] = no effect level: highest dose that did not cause hypercalcemia, oral gavage for 6 days, female DBF mice, serum ionized calcium

SMILES | Mouse Hypercal ([1]; female, DBF, mouse, in vivo, po, 6 days) | EC50 (rat osteocalcin promoter) | EC50 (RXR-VDR heterodimer) | EC50 (VDR) | EC50 (rat osteocalcin promoter; Rattus norvegicus, 48 h) | Mouse Hypercal [1, 2]
CCC(CC)(c1ccc(OCC(O)C(C)(C)C)c(C)c1)c1ccc2cc(C(=O)O)ccc2c1 (single isomer, unassigned) [Ex. 2B, 6-{1-Ethyl-1-[4-(2-hydroxy-3,3-dimethyl-butoxy)-3-methyl-phenyl]-propyl}-naphthalene-2-carboxylic acid] | 1000 µg/kg/day | 18.4 nM | 25.3 nM |  |  | 
CCC(CC)(c1ccc(OCC(=O)C(C)(C)C)c(C)c1)c1ccc2ccc(C(=O)O)cc2c1 [Ex. 6, 7-{1-[4-(3,3-Dimethyl-2-oxobutoxy)-3-methylphenyl]-1-ethylpropyl}naphthalene-2-carboxylic acid] |  |  | 715 nM | 714 nM | 104 nM | 
CCC(Oc1ccc(C(CC)(CC)c2ccc3cc(C(=O)NCC(=O)O)ccc3c2)cc1C)C(O)C(C)(C)C (stereo not drawn) [Ex. 7, 2-[6-{1-ethyl-1-[4-(1-ethyl-2-hydroxy-3,3-dimethyl-butoxy)-3-methyl-phenyl]-propyl}-naphthalene-2-carbonylamino]acetic acid] |  |  | 2.6 nM |  | 0.7 nM | 100 µg/kg/day
CCC(Oc1ccc(C(CC)(CC)c2ccc3cc(C(=O)N(C)CC(=O)O)ccc3c2)cc1C)C(O)C(C)(C)C (stereo not drawn) [Ex. 8, N-methyl-2-[6-{1-ethyl-1-[4-(1-ethyl-2-hydroxy-3,3-dimethyl-butoxy)-3-methyl-phenyl]-propyl}-naphthalene-2-carbonyl-amino]acetic acid] |  |  | 2 nM |  | 0.6 nM | 300 µg/kg/day
